Values quoted from earlier work in patent US7829066B2, “Assay for anti-metastatic agents” (Memorial Sloan-Kettering Cancer Center, priority 2006, dated 2010).

Test system: metastatic tumors
Details: stated as known

**Q.** For “Avastin: an anti-VEGF inhibitor that is known to inhibit metastatic tumors”, which “inhibition of metastatic tumors” value is on record?
**A.** known to inhibit metastatic tumors
